According to patent US11878987B2, “Heterocyclic compound as TRK inhibitor” (Beijing Innocare Pharma Tech Co., Ltd., priority 2018, dated 2024):

Tests used:
TRKA G667C = biological target: T1, TRKA G667C (Homo sapiens, UniProt P04629, G667C); assay: TRKA G667C activity inhibition test (HTRF kinase assay); type: biochemical; conditions: humanized recombined TRKA G667C protein, 2.7 μM ATP
T1 construct: purchased Signal Chem Life Sciences N16-12 CG
Method: TRKA G667C Activity Inhibition Test:
The effect of the compounds of the invention on the activity of TRKA G667C was evaluated by the in vitro kinase assay.
The experimental methods were summarized below:
The in vitro activity of TRKA G667C was measured using a HTRF kinase assay kit (Cisbio, No. 62TKOPEC) by detecting the phosphorylation level of the substrate in the kinase reaction.
The reaction buffer contained the following components: reaction buffer of the enzyme in the kit (1×), 5 mM MgCl2, 1 mM DTT. The humanized recombined TRKA G667C protein (No. N16-12 CG, Signal Chem Life Sciences) was diluted into 0.09 ng/μl kinase solution with the reaction buffer. […]
4 μl of solution of the test compound and 2 μl of solution of TRKA G667C kinase were added to the 384 well plate (Corning No. 4512), mixed well and incubated at room temperature for 15 minutes. […] The reaction process was monitored at the wavelength of 620 nm and 665 nm by Envision board reader (Perkin Elmer). The ratio of 665/620 was positively correlated with the phosphorylation level of the substrate, then TRKA G667C kinase activity was determined. […]
The IC50 value of the compound was calculated at 8 concentration points by XLfit (ID Business Solutions Ltd. UK) software through the following formula: Y=Bottom+(Top−Bottom)/(1+10^((log IC50−X)*slope factor)) […]

TRKA = TRKA (Homo sapiens, UniProt P04629); assay: TRKA activity inhibition test (HTRF kinase assay); type: biochemical; conditions: humanized recombined TRKA protein, 8.4 μM ATP
Chain of TRKA (P04629 33-796): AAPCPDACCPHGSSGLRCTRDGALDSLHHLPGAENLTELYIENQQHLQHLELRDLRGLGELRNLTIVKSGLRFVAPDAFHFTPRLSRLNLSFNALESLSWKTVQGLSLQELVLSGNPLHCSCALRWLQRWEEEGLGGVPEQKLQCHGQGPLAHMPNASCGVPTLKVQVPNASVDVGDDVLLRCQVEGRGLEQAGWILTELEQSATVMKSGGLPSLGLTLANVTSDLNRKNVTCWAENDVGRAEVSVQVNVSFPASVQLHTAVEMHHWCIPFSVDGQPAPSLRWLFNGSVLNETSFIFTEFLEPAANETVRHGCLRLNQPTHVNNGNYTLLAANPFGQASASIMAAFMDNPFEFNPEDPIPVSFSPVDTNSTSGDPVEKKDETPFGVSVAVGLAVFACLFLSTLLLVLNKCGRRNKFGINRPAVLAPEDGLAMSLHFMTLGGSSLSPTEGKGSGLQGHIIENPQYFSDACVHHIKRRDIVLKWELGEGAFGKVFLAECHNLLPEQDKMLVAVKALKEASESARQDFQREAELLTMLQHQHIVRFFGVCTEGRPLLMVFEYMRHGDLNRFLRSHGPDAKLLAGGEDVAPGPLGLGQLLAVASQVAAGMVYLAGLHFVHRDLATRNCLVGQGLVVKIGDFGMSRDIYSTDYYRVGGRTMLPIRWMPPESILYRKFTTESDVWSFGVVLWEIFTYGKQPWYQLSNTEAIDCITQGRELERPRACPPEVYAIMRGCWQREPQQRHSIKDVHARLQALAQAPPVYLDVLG
Method: TRKA Activity Inhibition Test
The effect of the compounds of the invention on TRKA activity was evaluated by in vitro kinase assays
(§1) The experimental methods were summarized as follows:
The in vitro activity of TRKA was measured by the use of a homogeneous time-resolved fluorescence (HTRF) kinase assay kit (Cisbio, NO. 62TKOPEC) through detecting the phosphorylation level of the substrate in the kinase reaction. The reaction buffer contained the following components: reaction buffer of the enzyme in the kit (1×), 5 mM MgCl2, 1 mM DTT; The humanized recombined TRKA protein was expressed and purified by the purification and identification platform of Tsinghua university, and was diluted into kinase solution (3 ng/μl) with the reaction buffer. The substrate reaction solution comprised 0.23 μM biotin-labeled tyrosine kinase substrate and 8.4 μM ATP, which was diluted with reaction buffer. The detection buffer comprised 0.1 ng/μL cage antibody labelled with Eu3+ and 14.375 nM XL665 labeled with streptavidin, which was diluted with reaction buffer.
The compound was dissolved into 100% DMSO and diluted to 100 or 10 μM, then diluted with DMSO in 4 times serial dilution to a minimum concentration of 6.1 or 0.61 nM, and each concentration point was further diluted 40 times with the reaction buffer.
To the 384 well plate (Corning No. 4512), 4 μl of the solution of the test compound and 2 μl of the solution of TRKA kinase were added respectively, then mixed well and incubated at room temperature for 15 minutes. 4 μl of the solution of substrate was then added and the reaction mixture was incubated at room temperature for 60 minutes. A 10 μl detection buffer of the same volume as the reaction mixture was then added, the mixture was mixed well and allowed to stand for 30 minutes at room temperature. The reaction process was monitored at the wavelengths of 620 nm and 665 nm by Envision board reader (Perkin Elmer). The ratio of 665/620 was positively correlated with the phosphorylation level of the substrate, then TRKA kinase activity was determined. […] The inhibition percentage of the test compound on the TRKA activity can be calculated by the following formula: The IC50 value of the compound was calculated at 8 concentration points by use of XLfit software (ID Business Solutions Ltd. UK) through the following formula: Y=Bottom+(Top−Bottom)/(1+10^((log IC50−X)*slope factor)) Of which Y is the inhibition percentage; X is the logarithm of the concentration of the compound to be tested; Bottom is the […] inhibition percentage; Top is the […] inhibition percentage; slope factor is the slope coefficient of the curve.

KM12 cells = assay: KM12 cell proliferation, luminescent cell viability test (CellTiter-Glo); type: cell-based; conditions: Homo sapiens, 96 hours, CTG
Method: Determination of Median Effective Inhibition Concentration GI50 in KM12 Cells
The effect of the compounds of the invention on the proliferation of KM12 cells was evaluated by the luminescent cell viability test.
as §1
CellTilter-Glo (CTG) detection kit was used. A unique and stable luciferase was used to detect ATP, an indicator of viable cell metabolism. The luminescence signal generated in the experiment was proportional to the number of viable cells in the culture medium, thus the proliferation of KM12 cells was detected.
KM12 cell (purchased from Shanghai Xinyu biological Co.) was cultured in IMDM complete medium (Thermo Fisher, 12440053) containing 10% FBS (GBICO, 10099-141) and 100 units/ml of penicillin streptomycin mixture (Thermofisher, 15140122). When the cell coverage rate in the culture container reached 80-90%, 0.25% trypsin (containing EDTA) (Thermofisher, 25200056) was used to digest and disperse the cells, then they were planted in a white 384 well plate (164610). To each well containing 1000 cells was added 27 μL IMDM complete medium. Then the 384 well plate was cultured overnight in an incubator containing 5% CO2 at 37° C. The compound was dissolved into 100% DMSO and diluted to 1 mM, then diluted with DMSO in 4 times serial dilution to the lowest concentration of 0.061 μM. Each concentration point was further diluted 50 times with IMDM medium. If the IC50 value of the compound was very low, the initial concentration of the compound can be reduced. 3 μl Diluted compound was added into each well, centrifuged and mixed well gently. The medium without cells was used as negative control (100% inhibition), and the group with 0.2% DMSO was used as positive control (0% inhibition).
The 384 well plate was placed in the incubator at 37° C. and 5% CO2 for further incubation. After 96 hours, the plate was taken out and placed at room temperature for 30 minutes. […] Then the cold light signal was read by Envision (Perkin Elmer). […]
The percentage of inhibition of KM12 cell proliferation by the compounds can be calculated by the following formula: Inhibition percentage=100−100*{[(Signalcompound−Signalnegative control)−T0control]/[(Signalpositive control−Signalnegative control)−T0control]}
The IC50 values of compounds were calculated by XLfit (ID Business Solutions Ltd., UK) software at 8 concentration points through the following formula: Y=Bottom+(Top−Bottom)/(1+10^((Log IC50−X)*slope factor))
Of which, Y is the inhibition percentage, Bottom is the bottom plateau of the curve (the bottom platform value of S curve), Top is the top plateau of the curve (the top platform value of S curve), X is the logarithm of the concentration of the compound to be measured.

TRKA G595R = biological target: T2, TRKA G595R (Homo sapiens, UniProt P04629, G595R); assay: TRKA G595R activity inhibition test (HTRF kinase assay); type: biochemical; conditions: humanized recombined TRKA G595R protein, 2.9 μM ATP
T2 construct: purchased Signal Chem Life Sciences N16-12BG
T2 sequence (P04629 33-796 G595R): as the sequence (P04629 33-796) above, with G563R counted along it
Method: TRKA G595R Activity Inhibition Test:
The effect of the compounds of the invention on the activity of TRKA G595R was evaluated by the in vitro kinase assay.
The experimental method was summarized below:
The in vitro activity of TRKA G595R was measured using a HTRF kinase assay kit (Cisbio, No. 62TKOPEC) by detecting the phosphorylation level of the substrate in the kinase reaction. The reaction buffer contained the following components: the reaction buffer of the enzyme in the kit (1×), 5 mM MgCl2, 1 mM DTT. The humanized recombined TRKA G595R protein (No. N16-12BG, purchased from Signal Chem Life Sciences) was diluted into 0.25 ng/kinase solution with the reaction buffer. The substrate reaction solution comprised 0.51 μM biotin-labeled tyrosine kinase substrate and 2.9 μM ATP, which was diluted with reaction buffer. The detection buffer comprised 0.15 ng/μL cage antibody labelled with Eu3+ and 31.875 nM XL665 labeled with streptavidin, which was diluted with reaction buffer.
The compound was dissolved into 100% DMSO and diluted to 1 mM or 100 μM, then diluted with DMSO in 4 times serial dilution to a minimum concentration of 61 or 6.1 nM, and each concentration point was further diluted 40 times with the reaction buffer.
4 μl of solution of the test compound and 2 μl of solution of TRKA G595R kinase were added to the 384 well plate (Corning No. 4512), mixed well and incubated at room temperature for 15 minutes. Then 4 μl of solution of substrate was added and the reaction mixture was incubated at room temperature for 60 minutes. 10 μl of detection buffer of the same volume as the reaction mixture was then added, the reaction mixture was mixed well and allowed to stand for 30 minutes at room temperature. The reaction process was monitored at the wavelength of 620 nm and 665 nm by Envision board reader (Perkin Elmer). The ratio of 665/620 was positively correlated with the phosphorylation level of the substrate, then TRKA G595R kinase activity was determined. In this experiment, the group without TRKA G595R kinase was used as the negative control (100% inhibition), the group with TRKA G595R but without the test compound was used as the positive control (0% inhibition). The inhibition percentage of the test compound on TRKA G595R activity can be calculated by the following formula: Inhibition percentage=100−100*(signal value of the test compound under specific concentration−signal value of the negative control)/(signal value of the positive control−signal value of the negative control) The IC50 value of the test compound was calculated at 8 concentration points by use of XLfit (ID Business Solutions Ltd. UK) software through the following formula: Y=Bottom+(Top−Bottom)/(1+10^((log IC50−X)*slope factor)) […]

[1] = early clinical trials, cited from earlier work

T1 sequence (P04629 33-796 G667C): as the sequence (P04629 33-796) above, with G635C counted along it

Structure (SMILES)	IC50 (TRKA G667C) [nM]	IC50 (TRKA) [nM]	GI50 (KM12 cells) [nM]	IC50 (TRKA G595R) [nM]	patients in complete remission ([1]; 6 patients, no tumor detectable by existing methods) [%]	patients who achieved objective responses ([1]; 38 patients) [%]	patients in remission for more than a year [1] [patients]
C[C@H]1CNC(=O)Nc2cnn3ccc(nc23)N2C[C@@H](F)C[C@@H]2c2cc(F)cnc2O1 [Compound 1, (2^2R,2^4S,5S)-2^4,3^5-difluoro-5-methyl-4-oxa-7,9-diaza-1(5,3)-pyrazolo[1,5-a]pyrimidin-3(3,2)-pyridin-2(1,2)-pyrrolidincyclononan-8-one]	1.63	0.24	0.43	0.26	–	–	–
O=C1NCCOc2ncc(F)cc2[C@H]2C[C@H](F)CN2c2ccn3ncc(c3n2)N1 [Compound 2, (2^2R,2^4S)-2^4,3^5-difluoro-4-oxa-7,9-diaza-1(5,3)-pyrazolo[1,5-a]pyrimidin-3(3,2)-pyridin-2(1,2)-pyrrolidincyclononan-8-one]	16.3	0.97	3.12	12.2	–	–	–
CN1CCOc2ncc(F)cc2[C@H]2C[C@H](F)CN2c2ccn3ncc(c3n2)NC1=O [Compound 3, (2^2R,2^4S)-2^4,3^5-difluoro-7-methyl-4-oxa-7,9-diaza-1(5,3)-pyrazolo[1,5-a]pyrimidin-3(3,2)-pyridin-2(1,2)-pyrrolidincyclononan-8-one]	–	1.46	33.7	10.2	–	–	–
C[C@H]1CCNC(=O)Nc2cnn3ccc(nc23)N2CCC[C@@H]2c2cc(F)cnc2O1 [Compound 4, (2^2R,5S)-3^5-fluoro-5-methyl-4-oxa-8,10-diaza-1(5,3)-pyrazolo[1,5-a]pyrimidin-3(3,2)-pyridin-2(1,2)-pyrrolidincyclodecan-9-one]	–	1.08	2.26	1.4	–	–	–
O=C(Nc1cnn2ccc(N3CCC[C@@H]3c3cc(F)ccc3F)nc12)N1CC[C@H](O)C1 [larotrectinib]	–	–	–	–	12	76	30
